From BindingDB's records for doi:10.1124/jpet.105.089839 (F. Hoffmann-La Roche, 2005)
“And” between values parts separate entries of the source, which are not always exact repeats. Identical values can stand only once.

Experiments:
[1] = target: Metabotropic glutamate receptor 5 (Rattus norvegicus, UniProt P31424)
[2] = target: Metabotropic glutamate receptor 5 (Homo sapiens, UniProt P41594)
Metabotropic glutamate receptor 5 (Homo sapiens, UniProt P41594), sequence (P41594 whole entry): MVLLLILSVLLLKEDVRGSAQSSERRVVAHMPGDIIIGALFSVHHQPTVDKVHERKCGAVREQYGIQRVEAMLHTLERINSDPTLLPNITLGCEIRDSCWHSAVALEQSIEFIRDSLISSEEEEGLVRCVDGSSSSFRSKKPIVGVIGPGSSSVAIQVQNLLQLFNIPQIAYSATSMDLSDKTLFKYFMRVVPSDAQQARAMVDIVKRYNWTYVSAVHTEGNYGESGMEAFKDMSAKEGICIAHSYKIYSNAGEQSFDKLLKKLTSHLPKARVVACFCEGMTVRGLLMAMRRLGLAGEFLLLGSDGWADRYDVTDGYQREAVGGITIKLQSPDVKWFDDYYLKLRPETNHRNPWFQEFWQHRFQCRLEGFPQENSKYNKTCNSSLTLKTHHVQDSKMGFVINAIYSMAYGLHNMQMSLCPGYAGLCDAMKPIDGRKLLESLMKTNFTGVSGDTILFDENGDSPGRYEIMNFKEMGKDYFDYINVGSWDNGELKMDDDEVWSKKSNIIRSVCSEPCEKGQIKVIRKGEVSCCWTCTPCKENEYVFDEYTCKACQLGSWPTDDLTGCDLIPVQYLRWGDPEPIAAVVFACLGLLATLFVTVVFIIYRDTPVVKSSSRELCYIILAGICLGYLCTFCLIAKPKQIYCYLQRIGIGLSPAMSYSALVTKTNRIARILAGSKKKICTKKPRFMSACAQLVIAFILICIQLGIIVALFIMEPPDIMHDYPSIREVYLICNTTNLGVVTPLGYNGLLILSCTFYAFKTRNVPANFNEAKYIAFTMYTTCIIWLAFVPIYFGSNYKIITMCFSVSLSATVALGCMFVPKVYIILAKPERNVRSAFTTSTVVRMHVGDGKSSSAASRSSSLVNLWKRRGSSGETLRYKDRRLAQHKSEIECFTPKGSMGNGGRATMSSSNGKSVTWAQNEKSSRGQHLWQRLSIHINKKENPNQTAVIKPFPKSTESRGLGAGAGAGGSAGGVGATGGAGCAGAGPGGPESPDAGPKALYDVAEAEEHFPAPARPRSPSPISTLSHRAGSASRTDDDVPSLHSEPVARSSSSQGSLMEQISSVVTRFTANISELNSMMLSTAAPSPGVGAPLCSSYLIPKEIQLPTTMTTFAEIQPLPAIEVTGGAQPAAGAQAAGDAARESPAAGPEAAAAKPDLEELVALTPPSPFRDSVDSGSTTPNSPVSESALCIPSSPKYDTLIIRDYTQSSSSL

Metabotropic glutamate receptor 5 (Rattus norvegicus, UniProt P31424), sequence (P31424 whole entry): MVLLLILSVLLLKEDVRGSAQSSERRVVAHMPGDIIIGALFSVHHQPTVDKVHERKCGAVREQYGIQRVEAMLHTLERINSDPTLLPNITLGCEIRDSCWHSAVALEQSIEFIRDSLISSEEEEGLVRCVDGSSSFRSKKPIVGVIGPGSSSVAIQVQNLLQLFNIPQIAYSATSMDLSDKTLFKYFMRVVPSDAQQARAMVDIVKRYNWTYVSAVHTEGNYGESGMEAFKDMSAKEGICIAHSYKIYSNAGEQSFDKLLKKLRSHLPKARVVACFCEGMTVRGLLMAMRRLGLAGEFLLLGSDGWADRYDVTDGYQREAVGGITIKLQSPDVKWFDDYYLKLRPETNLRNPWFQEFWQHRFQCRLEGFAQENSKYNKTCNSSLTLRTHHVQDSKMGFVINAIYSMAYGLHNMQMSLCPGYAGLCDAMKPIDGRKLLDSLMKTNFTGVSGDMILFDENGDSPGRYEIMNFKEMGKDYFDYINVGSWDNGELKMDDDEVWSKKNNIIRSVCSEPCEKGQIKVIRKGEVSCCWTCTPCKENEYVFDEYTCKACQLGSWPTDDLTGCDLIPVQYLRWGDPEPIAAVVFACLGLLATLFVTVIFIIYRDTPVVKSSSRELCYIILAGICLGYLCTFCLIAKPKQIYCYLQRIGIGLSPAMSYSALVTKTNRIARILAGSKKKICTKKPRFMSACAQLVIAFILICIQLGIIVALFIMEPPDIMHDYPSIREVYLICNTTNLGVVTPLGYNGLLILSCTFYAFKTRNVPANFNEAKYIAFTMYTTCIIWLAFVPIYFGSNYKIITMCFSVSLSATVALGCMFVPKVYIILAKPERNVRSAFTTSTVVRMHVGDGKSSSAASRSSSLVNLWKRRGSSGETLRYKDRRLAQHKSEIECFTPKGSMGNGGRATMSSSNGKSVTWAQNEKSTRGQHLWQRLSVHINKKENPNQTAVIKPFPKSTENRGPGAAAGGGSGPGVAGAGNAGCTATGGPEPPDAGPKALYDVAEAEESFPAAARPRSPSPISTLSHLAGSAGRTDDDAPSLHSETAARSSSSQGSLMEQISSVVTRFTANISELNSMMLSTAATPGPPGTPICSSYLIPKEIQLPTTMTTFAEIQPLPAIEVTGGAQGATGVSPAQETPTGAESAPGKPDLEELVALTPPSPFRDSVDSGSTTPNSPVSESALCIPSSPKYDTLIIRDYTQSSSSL

Structure (SMILES) | Ki [1] | Ki [2]
Cc1ccc(O)c(N=Nc2ccccc2)n1 [CAS_5218788] | 486 nM and 346 nM | 357 nM and 328 nM and 1100 nM
Cc1cccc(C=Cc2ccccc2)n1 [CAS_5311432] | 423 nM and 243 nM | 334 nM and 219 nM and 800 nM
N[C@@H](Cn1oc(=O)[nH]c1=O)C(=O)O [NSC_40539] | > 10000 nM | > 10000 nM
Cn1cc(O)nc1NC(=O)Nc1cccc(Cl)c1 [NSC_216215] | 56.3 nM and 50.8 nM | 40.8 nM and 53 nM and 58 nM
